Converted amounts (≈) assume the structure as drawn. Where two headings read alike, the source gives them in different places.
Columns and labels:
Bortezomib solubility = assay type: physicochemical; conditions: read-out: BTZ solubility
[1] = Pharmacologic kinetic profile in rats (plasma levels by LCMS); assay type: in vivo, Sprague-Dawley rats; conditions: single intravenous dose of 0.1 mg/kg, FIG. 13A
Protocol: Rats (male Sprague Dawley, approximately 300 g with jugular cannulae are given a single intravenous dose of 0.1 mg/kg free drug or passively targeted nanoparticles (PTNP) encapsulating drug at time t=0. At various times after dosing, blood samples are collected from the jugular cannulae into tubes containing lithium heparin, and plasma is prepared. Plasma levels are determined by extraction of the drug from plasma followed by LCMS analysis.

With CC(C)C[C@H](NC(=O)[C@H](Cc1ccccc1)NC(=O)c1cnccn1)B(O)O [Bortezomib, bortezomib] the solubility (Bortezomib solubility; 0.5% sodium cholate, 2% BA, 4% EA in water (water phase), aqueous with cosolvent or surfactant or cyclodextrin, Water phase: 0.5% sodium cholate, 2% BA, 4% EA in water) was 1300 µg/mL (≈ 3.38 mM), the solubility (Bortezomib solubility; benzyl alcohol:ethyl acetate 21:79 (w/w %) (oil phase), organic solvent or mixture, Oil phase: Benzyl alcohol:Ethyl acetate (BA:EA = 21:79, w/w %)) was > 93000 µg/mL and the solubility (Bortezomib solubility; water (quench phase), water, Quench phase: water) was 1100 µg/mL (≈ 2.86 mM). For the same molecule, the “circulation time / plasma clearance” value [1] was “rapidly cleared from the plasma”.

Source: patent US20200261596A1, “Therapeutic Particles with Peptide Boronic Acid or Boronate Ester Compounds and Methods of Making and Using Same” (Pfizer Inc., priority 2016, published 2020)
